Experiments:
Conditions in all cases: 4 days
EOL-1 = experiment: IC50 (cell viability) (log10 M)
Procedure: (§1)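 14 AML cell lines were treated with 8 drug concentrations in duplicate on ECM-coated 384-well plates, with CellTiter-Glo viability read after 4 days. IC50 is the concentration where the fitted 4-parameter curve crosses 50% viability. For inactive compounds the maximum tested concentration is used as a placeholder.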

HL60 [1] = experiment: IC50 (cell viability) (log10 M)
Procedure: as §1

KASUMI1 = experiment: IC50 (cell viability) (log10 M)
Procedure: as §1

KG1 = experiment: IC50 (cell viability) (log10 M)
Procedure: as §1

MOLM/13 = experiment: IC50 (cell viability) (log10 M)
Procedure: as §1

MOLM/16 = experiment: IC50 (cell viability) (log10 M)
Procedure: as §1

MV4.11 [2] = experiment: IC50 (cell viability) (log10 M)
Procedure: as §1

NB4 = experiment: IC50 (cell viability) (log10 M)
Procedure: as §1

OCI-AML2 = experiment: IC50 (cell viability) (log10 M)
Procedure: as §1

OCI-AML3 [3] = experiment: IC50 (cell viability) (log10 M)
Procedure: as §1

PL-21 [4] = experiment: IC50 (cell viability) (log10 M)
Procedure: as §1

SKM1 [5] = experiment: IC50 (cell viability) (log10 M)
Procedure: as §1

THP-1 = experiment: IC50 (cell viability) (log10 M)
Procedure: as §1

U937 [6] = experiment: IC50 (cell viability) (log10 M)
Procedure: as §1

HL60 [7] = experiment: area under dose-response curve (cell viability) (AUC (arbitrary, % viability x log concentration)); higher = less sensitive (more viable)
How it was run: (§2)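 Fourteen leukemia cell lines were plated on extracellular-matrix-coated 384-well plates. Drugs were added robotically the next day at eight concentrations spanning 4–5 logs within 10^–12–10^–4 M, tailored per drug, in duplicate. Viability was read with CellTiter-Glo after 4 days. The value is the area under a four-parameter sigmoid fitted to the duplicate-averaged dose-response.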

MV4.11 [8] = experiment: as above
How it was run: as §2

OCI-AML3 [9] = experiment: as above
How it was run: as §2

PL-21 [10] = experiment: as above
How it was run: as §2

SKM1 [11] = experiment: as above
How it was run: as §2

U937 [12] = experiment: as above
How it was run: as §2

| SMILES | IC50 (log10 M) (EOL-1) | IC50 (log10 M) (HL60 [1]) | IC50 (log10 M) (KASUMI1) | IC50 (log10 M) (KG1) | IC50 (log10 M) (MOLM/13) | IC50 (log10 M) (MOLM/16) | IC50 (log10 M) (MV4.11 [2]) | IC50 (log10 M) (NB4) | IC50 (log10 M) (OCI-AML2) | IC50 (log10 M) (OCI-AML3 [3]) | IC50 (log10 M) (PL-21 [4]) | IC50 (log10 M) (SKM1 [5]) | IC50 (log10 M) (THP-1) | IC50 (log10 M) (U937 [6]) | area under dose-response curve (HL60 [7]) | area under dose-response curve (MV4.11 [8]) | area under dose-response curve (OCI-AML3 [9]) | area under dose-response curve (PL-21 [10]) | area under dose-response curve (SKM1 [11]) | area under dose-response curve (U937 [12]) |
| --- | --- | --- | --- | --- | --- | --- | --- | --- | --- | --- | --- | --- | --- | --- | --- | --- | --- | --- | --- | --- |
| CC1(C)CCC(c2ccc(Cl)cc2)=C(CN2CCN(c3ccc(C(=O)NS(=O)(=O)c4ccc(N[C@H](CCN5CCOCC5)CSc5ccccc5)c(S(=O)(=O)C(F)(F)F)c4)cc3)CC2)C1 [ABT-263] | -6.54 | -6.22 | -6.42 | -6.31 | -6.38 | -6.12 | -6.49 | > -5.96 | -6.42 | > -5.96 | > -5.96 | > -5.96 | > -5.96 | > -5.96 | 496 | 526 | 643 | 630 | 626 | 620 |
| Cl[TeH]1(Cl)(Cl)OCCO1.N [AS101] | > -5 | > -5 | > -5 | > -5 | -5.07 | > -5 | -5.19 | -5.28 | > -5 | > -5 | > -5 | > -5 | -5.02 | > -5 | 703 | 582 | 571 | 543 | 605 | 584 |
| O=C(NC1CCNCC1)c1n[nH]cc1NC(=O)c1c(Cl)cccc1Cl [AT-7519] | -7.28 | -6.57 | -6.54 | -6.08 | -6.96 | -6.37 | -6.96 | -6.93 | -6.9 | -6.93 | -6.96 | -6.99 | -6.61 | -7.21 | 544 | 445 | 460 | 431 | 415 | 414 |
| CN1CCN(CCOc2cc(OC3CCOCC3)c3c(Nc4c(Cl)ccc5c4OCO5)ncnc3c2)CC1 [AZD0530] | -5.77 | > -5 | > -5 | > -5 | -5.23 | -5.32 | -5.33 | > -5 | > -5 | > -5 | > -5 | > -5 | > -5 | > -5 | 818 | 617 | 705 | 641 | 736 | 663 |
| Cc1cc(C(=O)NOCCO)c(Nc2ccc(I)cc2F)n(C)c1=O [AZD8330] | < -8.34 | -8.31 | -8.22 | < -8.34 | -7.02 | > -5 | -8.16 | -8.3 | < -8.34 | < -8.34 | < -8.34 | < -8.34 | > -5 | > -5 | 405 | 317 | 87.3 | 205 | 44.2 | 465 |
| Cn1cnc2c(F)c(Nc3ccc(Br)cc3Cl)c(C(=O)NOCCO)cc21 [AZD-6244] | -6.11 | -6.75 | > -5 | -5.45 | > -5 | > -5 | -5.4 | -6.9 | -7.65 | -7.46 | -6.69 | -7.45 | > -5 | > -5 | 458 | 565 | 384 | 439 | 358 | 657 |
| COc1ccc(-c2ccc3c(N4CCOC[C@@H]4C)nc(N4CCOC[C@@H]4C)nc3n2)cc1CO [AZD-8055] | -8.05 | -5.35 | -6.78 | -7.85 | -7.57 | -7.98 | -7.75 | -6.86 | -7.24 | -7.34 | -7.46 | -7.16 | -5.23 | -8.07 | 537 | 338 | 405 | 390 | 413 | 310 |
| CNC(=O)c1ccccc1Sc1ccc2c(/C=C/c3ccccn3)n[nH]c2c1 [Axitinib] | -8.07 | -5.28 | -6.09 | -6.58 | -5.77 | -5.77 | -5.94 | -5.46 | -5.53 | -5.51 | -5.85 | -5.34 | -5.22 | -5.67 | 713 | 573 | 641 | 582 | 679 | 635 |
| Nc1ncn([C@@H]2O[C@H](CO)[C@@H](O)[C@H]2O)c(=O)n1 [Azacitidine] | -6.46 | -5.15 | -5.32 | -5.17 | -6.31 | -6.22 | -5.85 | -6.37 | -5.78 | -5.44 | -5.42 | -5.76 | -5.1 | -5.38 | 647 | 560 | 619 | 593 | 564 | 623 |
| Cc1ccc(S(=O)(=O)/C=C/C#N)cc1 [BAY 11-7082] | -6.3 | -6.19 | -6.25 | -6.21 | -6 | -6.09 | -6.31 | -5.97 | -5.94 | -6.35 | -6.03 | -6.22 | -5.91 | -6.11 | 474 | 494 | 461 | 500 | 467 | 499 |
| CC(C)(C)c1ccc(S(=O)(=O)/C=C/C#N)cc1 [BAY 11-7085] | -6.66 | -6.66 | -6.75 | -6.46 | -6.13 | -6.25 | -6.27 | -5.98 | -6 | -6.75 | -6.03 | -6.48 | -6.04 | -6.33 | 443 | 518 | 444 | 506 | 465 | 500 |
| Cn1c(=O)n(-c2ccc(C(C)(C)C#N)cc2)c2c3cc(-c4cnc5ccccc5c4)ccc3ncc21 [BEZ-235] | -7.84 | -6.65 | -7.17 | -6.98 | -7.34 | -7.64 | -7.24 | -6.69 | -7.06 | -7.11 | -7.32 | -7.5 | -6.87 | -7.84 | 512 | 436 | 459 | 444 | 451 | 374 |
| COc1ccc(-c2ccc3ncc4c(c3c2)n(-c2ccc(N3CCNCC3)c(C(F)(F)F)c2)c(=O)n4C)cn1 [BGT-226] | -8.04 | -6.86 | -7.28 | -6.94 | -7.59 | -8.05 | -7.65 | -6.92 | -7.3 | -7.17 | -7.44 | -7.48 | -7 | -8.02 | 452 | 399 | 412 | 367 | 369 | 325 |
| CC[C@@H]1C(=O)N(C)c2cnc(Nc3ccc(C(=O)NC4CCN(C)CC4)cc3OC)nc2N1C1CCCC1 [BI-2536] | < -8.34 | < -8.34 | < -8.34 | < -8.34 | < -8.34 | < -8.34 | < -8.34 | < -8.34 | < -8.34 | < -8.34 | < -8.34 | < -8.34 | < -8.34 | < -8.34 | 79.3 | 4.22 | 6.18 | 7.31 | 110 | 5.36 |
| COC(=O)c1ccc2c(c1)NC(=O)/C2=C(\Nc1ccc(N(C)C(=O)CN2CCN(C)CC2)cc1)c1ccccc1 [BIBF1120] | -8.09 | > -5 | > -5 | -5.46 | -6.53 | > -5 | -6.52 | > -5 | > -5 | > -5 | > -5 | > -5 | > -5 | > -5 | 758 | 489 | 685 | 626 | 677 | 698 |
| CN(C)C/C=C/C(=O)Nc1cc2c(Nc3ccc(F)c(Cl)c3)ncnc2cc1O[C@H]1CCOC1 [BIBW 2992] | -6.43 | -5.68 | -5.76 | -5.46 | -5.43 | -6.56 | -6.25 | -5.55 | -5.49 | -5.58 | -5.66 | -5.76 | -5.4 | -5.56 | 663 | 535 | 594 | 573 | 561 | 625 |
| O=C(/C=C/c1cccc(S(=O)(=O)Nc2ccccc2)c1)NO [Belinostat] | -7.83 | -6.91 | -7.21 | -7.32 | -7.04 | -7.83 | -7.71 | -7.2 | -7.69 | -7 | -6.9 | -7.16 | -6.83 | -7.36 | 550 | 348 | 446 | 419 | 469 | 388 |
| O=c1c(N=Nc2ccc(S(=O)(=O)O)cc2)c(-c2ccc([N+](=O)[O-])cc2)[nH]n1-c1ccccc1 [PHPS1] | > -5 | > -5 | > -5 | > -5 | > -5 | > -5 | > -5 | > -5 | > -5 | > -5 | > -5 | > -5 | > -5 | > -5 | 674 | 676 | 622 | 611 | 646 | 630 |
| Cc1ccc([N+](=O)[O-])cc1S(=O)(=O)N(C)/N=C/c1cnc2ccc(Br)cn12 [PIK-75] | -7.78 | -7.16 | -7.18 | -7.25 | -7.66 | -7.89 | -8.03 | -7.01 | -7.35 | -7.02 | -7.36 | -7.21 | -7.08 | -7.33 | 363 | 314 | 398 | 366 | 402 | 371 |
| COc1ccc2c3n(c(=NC(=O)c4cccnc4)nc2c1OC)CCN3 [PIK-90] | -5.42 | -5.78 | -5.88 | > -5 | > -5 | > -5 | > -5 | > -5 | > -5 | > -5 | > -5 | > -5 | > -5 | > -5 | 512 | 580 | 532 | 522 | 540 | 586 |
| CO[C@@H]1[C@H](N(C)C(=O)c2ccccc2)C[C@H]2O[C@]1(C)n1c3ccccc3c3c4c(c5c6ccccc6n2c5c31)C(=O)NC4 [PKC412] | -8.49 | -5.63 | -6.37 | -6.75 | -7.53 | -6.92 | -8.13 | -6.19 | -6.66 | -6.09 | -5.83 | -5.89 | -5.66 | -6.8 | 643 | 279 | 560 | 524 | 555 | 454 |

From the supplement of paper PMC5752671
